# Data: patent US20150335565A1, “IRRITATION MITIGATING POLYMERS AND USES THEREFOR” (LUBRIZOL ADVANCED MATERIALS, INC., priority 2012, published 2015)
# Where two headings read alike, the source gives them in different places.
# Assays:
# [1] = MTT tissue viability assay (ET-50 protocol) for skin irritancy; settings: human
# Experimental: (§1) Mitigation of skin irritancy induced by sodium dodecyl sulfate (SDS) surfactant dosed with the polymer of Example 56 is assessed in the Epiderm™ Human Tissue Model (EPI-200) bioassay conducted by MatTek Corporation, Ashland, Mass. The MatTek bioassay utilizes human derived epidermal keratinocytes (NHEK) which have been cultured to form a multilayered, highly differentiated model of the human epidermis.
# (§2) The MTT tissue viability assay measures the NAD(P)H dependent microsomal enzyme reduction of MTT (and to a lesser extent, the succinate dehydrogenase reduction of MTT) after exposure to a treated skin culture test sample for various exposure times. The duration of exposure resulting in a 50% decrease in MTT conversion in test formulation treated EpiDerm™ cultures, relative to control cultures, is determined (ET-50).
# (§3) A SDS surfactant/polymer test formulation is formulated from the components set forth in Table 10 and evaluated for irritancy potential using the MTT viability assay. Test samples containing neat SDS surfactant (no polymer) are formulated for comparative purposes.
# (§4) Skin tissue culture inserts (Cat. No. EPI-200) are pre-incubated in the wells of 6-well plates containing 0.9 ml of MatTek assay medium (Cat. No. EPI-100-ASY) for 1 hr. at 37° C. in a humidified atmosphere of 5% CO2 in air. The 6-well plates containing the tissue culture inserts are removed from the incubator and the assay media is aspirated from the wells and replaced by an additional aliquot of 0.9 ml of pre-warmed (37° C.) assay media. For each exposure time wells are then dosed (2 repetitions) with 100 μl of the test formulations set forth in Table 10 (3 tissue culture wells are dosed with 100 μl ultra-pure water as a negative control for each of the test candidates). In addition, 100 μl of a positive control formulation (1% Triton X-100 in ultrapure water) is dosed into tissue culture wells (3 repetitions for each exposure time), as well as 3 repetitions of ultrapure water as a negative control. The exposure times of the test formulations, negative control and positive control are set forth below.
# (§5) MTT assay plates are prepped by preparing a 24-well plate by adding 300 μl of MTT reagent solution to an appropriate number of wells to accommodate the test. The MTT reagent is utilized at a concentration of 1 mg/ml of MTT diluted in Dulbecco's Modified Eagle Medium (DMEM). The MTT/DMEM solution is centrifuged and decanted to remove any precipitate before use.
# (§6) After exposure times of 60 (1 hr.), 120 (2 hrs.) and 210 (3.5 hrs.) minutes to the test solutions, the tissue cultures are removed from the incubator and thoroughly rinsed (2 times) with Dulbecco's phosphate buffered saline (DPBS) to remove the test material. The negative control is exposed for 4 hours and the positive control is exposed for time periods of 4, 6, 8, and 10 hours. Any remaining rinse media is decanted from the top of the tissue cultures. Each tissue culture insert is transferred to an appropriately labeled well of the 24-well plate containing the MTT reagent solution and placed back in the incubator. After 30 minutes reaction with the MTT reagent, the tissue cultures are removed from the incubator. Each tissue culture insert is removed from its well and the bottom is gently blotted with a lab tissue. The inserts are immersed into a labeled 24-well extraction plate containing 2 ml of isopropanol extractant solution. […]
# [2] = tested on: Epiderm™ Human Tissue Model (EPI-200); test: as above
# Experimental: as §1, §2, §3, §4, §5, §6
Compound,viability at 1 hr [1] [%],viability at 2 hr [1] [%],viability at 3.5 hr [1] [%],ET-50 (exposure time which reduces tissue viability to 50%) ([2]; interpolated between exposure times that bracket 50% viability) [h],ET-50 (exposure time which reduces tissue viability to 50%) [2] [h]
"CCCCCCCCCCCCOS(=O)(=O)[O-].[Na+] [Neat Surfactant, sodium dodecyl sulfate]",72,28,19.6,1.41,
Triton X-100 [1% Triton X-100],,,,,5.93
